For the test, the target named is T1, Interleukin-23 receptor (Homo sapiens, UniProt Q5VWK5).
T1 sequence (Q5VWK5 whole entry): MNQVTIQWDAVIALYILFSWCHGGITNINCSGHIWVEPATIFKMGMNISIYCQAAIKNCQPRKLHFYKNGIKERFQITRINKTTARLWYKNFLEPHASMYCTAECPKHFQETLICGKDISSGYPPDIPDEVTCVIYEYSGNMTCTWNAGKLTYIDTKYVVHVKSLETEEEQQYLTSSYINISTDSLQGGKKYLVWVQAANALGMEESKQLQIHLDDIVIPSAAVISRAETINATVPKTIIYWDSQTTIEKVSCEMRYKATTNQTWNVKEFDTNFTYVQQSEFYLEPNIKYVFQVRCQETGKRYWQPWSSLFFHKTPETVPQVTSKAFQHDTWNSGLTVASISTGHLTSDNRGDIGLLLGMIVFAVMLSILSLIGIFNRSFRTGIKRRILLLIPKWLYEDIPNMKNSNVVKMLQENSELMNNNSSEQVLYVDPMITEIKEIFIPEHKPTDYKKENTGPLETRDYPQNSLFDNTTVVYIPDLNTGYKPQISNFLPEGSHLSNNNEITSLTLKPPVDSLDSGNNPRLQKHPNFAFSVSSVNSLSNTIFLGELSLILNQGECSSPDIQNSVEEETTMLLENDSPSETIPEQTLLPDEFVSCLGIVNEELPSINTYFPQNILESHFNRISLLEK
Briefly: Inhibition of interleukin-23 binding to human interleukin-23 receptor incubated for 2 hrs by competitive binding ELISA. On the technique in general: In an ELISA, binding on a coated surface is turned into a signal by an enzyme label.

The results in this text go back to ChEMBL document CHEMBL4417631, “Oral peptide inhibitors of interleukin-23 receptor and their use to treat inflammatory bowel diseases” (2017).

The structures appear in SMILES notation. Where a SMILES comes first, the peptide text is derived from it.

The IC50 is the concentration at which inhibition is half-maximal. `CC(=O)N[C@@H](CS)C(=O)N[C@@H](C)C(=O)N[C@@H](CC(=O)O)C(=O)N[C@@H](Cc1c[nH]c2ccccc12)C(=O)N[C@H](C(=O)N[C@@H](CS)C(=O)N[C@@H](Cc1ccc(O)cc1)C(=O)N[C@@H](Cc1cccc2ccccc12)C(=O)N[C@@H](Cc1cnc[nH]1)C(=O)N[C@H](C)C(=O)N[C@@H](Cc1ccccc1)C(=O)NCC(N)=O)C(C)C` returned an IC50 above 1000 nM.

The compound `CC(C)[C@H](NC(=O)[C@H](Cc1c[nH]c2ccccc12)NC(=O)[C@H](CC(=O)O)NC(=O)[C@H](C)NC(=O)[C@@H](N)CS)C(=O)N[C@@H](CS)C(=O)N[C@@H](Cc1ccc(O)cc1)C(=O)N[C@@H](Cc1ccc2ccccc2c1)C(=O)N[C@@H](Cc1cnc[nH]1)C(=O)N[C@H](C(=O)N[C@@H](Cc1ccccc1)C(=O)NCC(N)=O)[C@@H](C)O` came in with an IC50 of 500 to 1000 nM.

The compound `CC(C)[C@H](NC(=O)[C@H](Cc1c[nH]c2ccccc12)NC(=O)[C@H](CC(=O)O)NC(=O)[C@H](C)NC(=O)[C@@H](N)CS)C(=O)N[C@@H](CS)C(=O)N[C@@H](Cc1ccc(O)cc1)C(=O)N[C@@H](Cc1cccc2ccccc12)C(=O)N[C@@H](Cc1cnc[nH]1)C(=O)N[C@H](C(=O)N(C)[C@@H](Cc1ccccc1)C(N)=O)[C@@H](C)O` displayed an IC50 above 1000 nM.

Consider `CC(C)[C@H](NC(=O)[C@H](Cc1c[nH]c2ccccc12)NC(=O)[C@H](CC(=O)O)NC(=O)[C@H](C)NC(=O)[C@H](CS)NC(=O)[C@H](CO)NC(=O)CCN)C(=O)N[C@@H](CS)C(=O)N[C@@H](Cc1ccc(O)cc1)C(=O)N[C@@H](Cc1c[nH]c2ccccc12)C(=O)N[C@@H](Cc1cnc[nH]1)C(=O)N[C@H](C(=O)N[C@@H](Cc1ccccc1)C(=O)NCC(=O)O)[C@@H](C)O`, for which the IC50 was above 1000 nM.

Regarding `N=C(N)NCCC[C@H](NC(=O)[C@H](Cc1c[nH]c2ccccc12)NC(=O)[C@H](Cc1ccc(O)cc1)NC(=O)[C@@H]1CSCCC(=O)N[C@@H](CCC(N)=O)C(=O)N[C@@H](CC(=O)O)C(=O)N[C@@H](Cc2c[nH]c3ccccc23)C(=O)N[C@@H](CCC(N)=O)C(=O)N1)C(=O)N[C@@H](CCC(=O)O)C(=O)N[C@@H](CC(N)=O)C(=O)NCC(=O)NCCOCC(=O)N[C@H](CCCCN)C(N)=O`, the IC50 was determined as 30000 nM.

Regarding `CC(=O)N[C@@H](CS)C(=O)N[C@@H](CCC(N)=O)C(=O)N[C@H](C(=O)N[C@@H](Cc1c[nH]c2ccccc12)C(=O)N[C@@H](CCC(N)=O)C(=O)N[C@@H](CS)C(=O)N[C@@H](CCC(=O)O)C(=O)N[C@@H](Cc1c[nH]c2ccccc12)C(=O)N[C@@H](CCC(C)C)C(=O)N[C@@H](CCC(=O)O)C(=O)N[C@@H](CC(N)=O)C(=O)NCC(N)=O)[C@@H](C)O`, the IC50 is above 30000 nM.

Turning to `C[C@H](N)C(=O)N[C@@H](CS)C(=O)N[C@@H](CC(=O)O)C(=O)N[C@@H](Cc1c[nH]c2ccccc12)C(=O)N[C@@H](CS)C(=O)N[C@@H](CS)C(=O)N[C@@H](Cc1ccc(O)cc1)C(=O)N[C@@H](Cc1c[nH]c2ccccc12)C(=O)N[C@@H](CS)C(=O)N[C@H](C(=O)N[C@@H](Cc1ccccc1)C(=O)NCC(N)=O)[C@@H](C)O` (H-ACDWCCYWCTFG-NH2), the IC50 is above 1000 nM.

In turn, `CC(=O)N[C@@H](CS)C(=O)N[C@@H](CCC(N)=O)C(=O)N[C@H](C(=O)N[C@@H](Cc1c[nH]c2ccccc12)C(=O)N[C@@H](CCC(N)=O)C(=O)N[C@@H](CS)C(=O)N[C@@H](Cc1ccc(O)cc1)C(=O)N[C@@H](Cc1ccc(Cl)c(Cl)c1)C(=O)N[C@@H](CCCNC(=N)N)C(=O)N[C@H](C(=O)N[C@@H](CC(N)=O)C(=O)NCC(=O)NCCOCC(=O)N[C@H](CCCCN)C(N)=O)C(C)C)[C@@H](C)O` registered an IC50 above 30000 nM.

Consider `CC(=O)N[C@@H](CS)C(=O)N[C@@H](C)C(=O)N[C@@H](CC(=O)O)C(=O)N[C@@H](Cc1c[nH]c2ccccc12)C(=O)N[C@H](C(=O)N[C@@H](CS)C(=O)N[C@@H](Cc1ccc(O)cc1)C(=O)N[C@@H](Cc1c[nH]c2ccccc12)C(=O)N[C@@H](Cc1cnc[nH]1)C(=O)N[C@H](C(=O)N[C@@H](Cc1ccccc1)C(=O)NCC(=O)N[C@@H](CCC(=O)O)C(=O)N[C@@H](CCCNC(=N)N)C(N)=O)[C@@H](C)O)C(C)C`, for which the IC50 was below 500 nM.

For `CC(=O)NC1CC/C=C\CCCC(C(=O)N[C@@H](Cc2ccc(O)cc2)C(=O)N[C@@H](Cc2c[nH]c3ccccc23)C(=O)N[C@@H](CCCNC(=N)N)C(=O)N[C@@H](CCCCN)C(=O)N[C@@H](Cc2ccccc2)C(=O)NCC(=O)NCCOCC(=O)N[C@H](CCCCN)C(N)=O)NC(=O)[C@H](CCC(N)=O)NC(=O)[C@H](Cc2c[nH]c3ccccc23)NC(=O)[C@H]([C@@H](C)O)NC(=O)[C@H](CCCNC(=N)N)NC1=O` (stereo not given in full), the IC50 was 1000 to 10000 nM.

The compound `CC(=O)N[C@@H](CS)C(=O)N[C@@H](C)C(=O)N[C@@H](CC(=O)O)C(=O)N[C@@H](Cc1c[nH]c2ccccc12)C(=O)N[C@H](C(=O)N[C@@H](CS)C(=O)N[C@@H](Cc1ccc(O)cc1)C(=O)N[C@@H](Cc1cccc2ccccc12)C(=O)N[C@@H](Cc1ccccc1)C(=O)N[C@H](C(=O)N[C@@H](Cc1ccccc1)C(=O)NCC(N)=O)[C@@H](C)O)C(C)C` yielded an IC50 above 1000 nM.

Consider `N=C(N)NCCC[C@H](NC(=O)[C@H](Cc1cnc[nH]1)NC(=O)[C@H](Cc1c[nH]c2ccccc12)NC(=O)[C@H](Cc1ccc(O)cc1)NC(=O)[C@H](CS)NC(=O)[C@H](CCC(=O)O)NC(=O)[C@H](Cc1c[nH]c2ccccc12)NC(=O)[C@H](CC(N)=O)NC(=O)[C@@H]1CCCN1C(=O)[C@@H](N)CS)C(=O)N[C@@H](Cc1ccccc1)C(=O)NCC(N)=O` (H-CPNWECYWHRFG-NH2), for which the IC50 fell in the range of 500 to 1000 nM.

Compound `CC(=O)NCC(=O)NCC(=O)N[C@H](C(=O)N[C@@H](CCC(=O)O)C(=O)N[C@@H](CS)C(=O)N[C@@H](CC(N)=O)C(=O)N[C@@H](CC(=O)O)C(=O)N[C@@H](Cc1c[nH]c2ccccc12)C(=O)N[C@@H](CCC(N)=O)C(=O)N[C@@H](CS)C(=O)N[C@@H](Cc1ccc(O)cc1)C(=O)N[C@@H](Cc1c[nH]c2ccccc12)C(=O)N[C@@H](Cc1cnc[nH]1)C(=O)N[C@H](C(=O)N[C@@H](Cc1ccccc1)C(=O)NCC(N)=O)[C@@H](C)O)C(C)C` (Ac-GGVECNDWQCYWHTFG-NH2) gave an IC50 of 500 to 1000 nM.

`NC(=O)CC[C@H](NC(=O)[C@@H](N)CS)C(=O)N[C@@H](CO)C(=O)N[C@@H](Cc1c[nH]c2ccccc12)C(=O)N[C@@H](CCC(=O)O)C(=O)N[C@@H](CS)C(=O)N[C@@H](Cc1ccc(O)cc1)C(=O)N[C@@H](Cc1c[nH]c2ccccc12)C(=O)N[C@@H](Cc1cnc[nH]1)C(=O)N[C@@H](Cc1ccc(O)cc1)C(=O)N[C@@H](Cc1ccc(O)cc1)C(=O)NCC(N)=O` (H-CQSWECYWHYYG-NH2): the IC50 was above 1000 nM.

`CC(=O)N[C@@H](CS)C(=O)N[C@@H](C)C(=O)N[C@@H](CC(=O)O)C(=O)N[C@@H](Cc1c[nH]c2ccccc12)C(=O)N[C@H](C(=O)N[C@@H](CS)C(=O)N[C@@H](Cc1ccc(O)cc1)C(=O)N[C@@H](Cc1c[nH]c2ccccc12)C(=O)N[C@@H](Cc1cnc[nH]1)C(=O)N[C@H](C(=O)N[C@@H](Cc1ccccc1)C(=O)NCC(=O)NCCOCCC(=O)N[C@H](CCCNC(=N)N)C(=O)O)[C@@H](C)O)C(C)C`: the IC50 was below 500 nM.

Consider `CC(=O)N[C@@H](CS)C(=O)N[C@@H](CCC(N)=O)C(=O)N[C@H](C(=O)N[C@@H](Cc1c[nH]c2ccccc12)C(=O)N[C@@H](CCC(N)=O)C(=O)N[C@@H](CS)C(=O)N[C@@H](Cc1ccc(O)cc1)C(=O)N[C@@H](Cc1c[nH]c2ccccc12)C(=O)N[C@@H](CCCNC(=N)N)C(=O)N(C)[C@@H](CCCCN)C(=O)N[C@@H](CC(N)=O)C(=O)NCC(=O)NCCOCC(=O)N[C@H](CCCCN)C(N)=O)[C@@H](C)O`, for which the 50% inhibitory concentration (IC50) is above 1000 nM.

`CC(C)[C@H](NC(=O)[C@H](Cc1c[nH]c2ccccc12)NC(=O)[C@H](CC(=O)O)NC(=O)[C@H](C)NC(=O)[C@@H](N)CS)C(=O)N[C@@H](CS)C(=O)N[C@@H](Cc1ccc(O)cc1)C(=O)N[C@@H](Cc1cccc2ccccc12)C(=O)N[C@@H](Cc1cnc[nH]1)C(=O)N[C@H](C(=O)N[C@@H](Cc1ccccc1)C(=O)NCC(N)=O)[C@@H](C)O` showed a half-inhibitory concentration (IC50) of 500 to 1000 nM.

For the compound `CC(=O)NC1CC/C=C\CCC(C(=O)N[C@@H](Cc2ccc(O)cc2)C(=O)N[C@@H](Cc2c[nH]c3ccccc23)C(=O)N[C@@H](CCCNC(=N)N)C(=O)N[C@@H](CCCCN)C(=O)N[C@@H](Cc2ccccc2)C(=O)NCC(=O)NCCOCC(=O)N[C@H](CCCCN)C(N)=O)NC(=O)[C@H](CCC(N)=O)NC(=O)[C@H](Cc2c[nH]c3ccccc23)NC(=O)[C@H]([C@@H](C)O)NC(=O)[C@H](CCCNC(=N)N)NC1=O` (stereo not given in full), the IC50 was 100 to 1000 nM.

For the compound `CC(=O)NCC(=O)N[C@@H](CC(=O)O)C(=O)N[C@@H](Cc1cnc[nH]1)C(=O)N[C@@H](CCCCN)C(=O)N[C@@H](CS)C(=O)N[C@@H](CO)C(=O)N[C@@H](CO)C(=O)N[C@@H](Cc1c[nH]c2ccccc12)C(=O)N[C@@H](CCC(=O)O)C(=O)N[C@@H](CS)C(=O)N[C@@H](Cc1ccc(O)cc1)C(=O)N[C@@H](Cc1c[nH]c2ccccc12)C(=O)N[C@@H](Cc1cnc[nH]1)C(=O)N[C@H](C(=O)N[C@@H](Cc1ccccc1)C(=O)NCC(N)=O)[C@@H](C)O` (Ac-GDHKCSSWECYWHTFG-NH2), the IC50 was in the range of 500 to 1000 nM.

`CC(C)[C@H](NC(=O)[C@H](Cc1c[nH]c2ccccc12)NC(=O)[C@H](CC(=O)O)NC(=O)[C@H](CS)NC(=O)[C@H](C)N)C(=O)N[C@@H](CS)C(=O)N[C@@H](Cc1ccc(O)cc1)C(=O)N[C@@H](Cc1c[nH]c2ccccc12)C(=O)N[C@@H](Cc1cnc[nH]1)C(=O)N[C@H](C(=O)N[C@@H](Cc1ccccc1)C(=O)NCC(N)=O)[C@@H](C)O` displayed an IC50 above 1000 nM.
